In US9168259B2 (GRÜNENTHAL GMBH, priority 2010, dated 2015):

Molecular target: T1, KCNQ2/3 channels (Homo sapiens, UniProt O43525+O43526)
T1 construct: expressed in transfected cells
Experiment: Fluorescence assay using a voltage sensitive dye (fluorimetry)
Type: cell-based
Conditions: CHO-K1 cells expressing KCNQ2/3; for Emax: CHO-K1, plateau effect relative to saturated retigabine (50 μM) = 100%, negative values = antagonistic, read-out: Fluorimetry % efficacy (retigabine = 100%); for EC50: IC50 where % efficacy is negative, read-out: Fluorimetry EC50/IC50

T1 sequence (O43526 whole entry): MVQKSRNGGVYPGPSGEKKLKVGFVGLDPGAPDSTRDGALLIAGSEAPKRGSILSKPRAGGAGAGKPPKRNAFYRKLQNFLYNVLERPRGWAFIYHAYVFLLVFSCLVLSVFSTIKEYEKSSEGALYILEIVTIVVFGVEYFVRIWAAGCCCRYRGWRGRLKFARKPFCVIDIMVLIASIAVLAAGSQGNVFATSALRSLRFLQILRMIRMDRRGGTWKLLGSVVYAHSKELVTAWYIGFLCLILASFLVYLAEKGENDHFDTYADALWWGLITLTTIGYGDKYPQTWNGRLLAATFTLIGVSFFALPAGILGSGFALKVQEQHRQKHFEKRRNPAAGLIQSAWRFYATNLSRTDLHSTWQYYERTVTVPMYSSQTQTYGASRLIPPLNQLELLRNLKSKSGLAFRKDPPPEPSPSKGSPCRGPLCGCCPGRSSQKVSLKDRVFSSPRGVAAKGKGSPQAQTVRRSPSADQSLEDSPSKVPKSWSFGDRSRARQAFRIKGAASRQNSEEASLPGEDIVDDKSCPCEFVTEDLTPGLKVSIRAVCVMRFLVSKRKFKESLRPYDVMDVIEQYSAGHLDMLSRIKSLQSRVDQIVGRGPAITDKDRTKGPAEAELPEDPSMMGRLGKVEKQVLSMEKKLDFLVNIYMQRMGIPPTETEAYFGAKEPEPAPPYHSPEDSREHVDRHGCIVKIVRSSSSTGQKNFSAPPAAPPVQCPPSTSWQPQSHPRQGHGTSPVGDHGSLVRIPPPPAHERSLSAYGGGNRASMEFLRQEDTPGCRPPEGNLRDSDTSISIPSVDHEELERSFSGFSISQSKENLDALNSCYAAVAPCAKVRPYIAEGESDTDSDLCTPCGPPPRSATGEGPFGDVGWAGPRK
T1 sequence (O43525 whole entry): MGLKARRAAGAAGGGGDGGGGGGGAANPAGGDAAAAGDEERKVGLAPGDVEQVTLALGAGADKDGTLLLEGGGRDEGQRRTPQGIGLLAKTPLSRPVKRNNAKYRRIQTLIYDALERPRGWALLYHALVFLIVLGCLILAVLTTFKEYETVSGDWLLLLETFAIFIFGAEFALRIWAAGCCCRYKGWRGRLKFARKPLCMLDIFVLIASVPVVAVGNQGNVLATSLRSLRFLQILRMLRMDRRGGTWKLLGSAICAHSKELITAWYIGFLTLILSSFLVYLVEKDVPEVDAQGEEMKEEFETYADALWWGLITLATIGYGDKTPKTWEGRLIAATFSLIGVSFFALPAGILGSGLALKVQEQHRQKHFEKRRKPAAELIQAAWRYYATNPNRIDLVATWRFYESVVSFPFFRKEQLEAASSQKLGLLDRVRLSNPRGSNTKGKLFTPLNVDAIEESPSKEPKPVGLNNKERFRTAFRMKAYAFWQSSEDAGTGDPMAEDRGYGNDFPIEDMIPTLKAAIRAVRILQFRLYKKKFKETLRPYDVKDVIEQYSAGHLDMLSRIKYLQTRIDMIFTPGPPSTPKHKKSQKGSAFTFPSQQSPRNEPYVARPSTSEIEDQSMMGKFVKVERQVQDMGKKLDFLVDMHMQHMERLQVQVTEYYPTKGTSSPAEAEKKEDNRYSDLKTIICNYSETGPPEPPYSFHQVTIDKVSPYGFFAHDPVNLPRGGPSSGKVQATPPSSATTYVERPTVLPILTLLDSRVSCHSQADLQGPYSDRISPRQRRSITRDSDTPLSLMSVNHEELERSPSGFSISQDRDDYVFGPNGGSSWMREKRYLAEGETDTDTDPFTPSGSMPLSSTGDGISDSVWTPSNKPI

| SMILES | Emax | EC50 |
| --- | --- | --- |
| CCSc1nc(N2CC(COC)C2)cc(C)c1C(=O)NCc1cccc(F)c1 [Example 239, 2-Ethylsulfanyl-N-[(3-fluorophenyl)-methyl]-6-[3-(methoxymethyl)-azetidin-1-yl]-4-methyl-pyridine-3-carboxylic acid amide] | 125% | 1820 nM |
| CCSc1nc(N2CC(C)OCC2C)cc(C)c1C(=O)NCc1cccc(F)c1 (centres unmarked) [Example 240, 6-(2,5-Dimethyl-morpholin-4-yl)-2-ethylsulfanyl-N-[(3-fluorophenyl)-methyl]-4-methyl-pyridine-3-carboxylic acid amide] | 174% | 394 nM |
| Cc1cc(N2CCOCC2)nc(N(C)C)c1C(=O)NCc1ccc(C(F)(F)F)cc1 [Example 241, 2-Dimethylamino-4-methyl-6-morpholin-4-yl-N-[[4-(trifluoromethyl)-phenyl]-methyl]-pyridine-3-carboxylic acid amide] | 160% | 558 nM |
| CCSc1nc(N2CCn3cc(C(F)(F)F)nc3C2)cc(C)c1C(=O)NCc1cccc(F)c1 [Example 243, 2-Ethylsulfanyl-N-[(3-fluorophenyl)-methyl]-4-methyl-6-[2-(trifluoromethyl)-5,6,7,8-tetrahydro-imidazo[1,2-a]pyrazin-7-yl]-pyridine-3-carboxylic acid amide] | 105% | 1280 nM |
| Cc1cc(N2CCOCC2)nc(N(C)C)c1C(=O)NCCCC(F)(F)F [Example 246, 2-Dimethylamino-4-methyl-6-morpholin-4-yl-N-(4,4,4-trifluoro-butyl)-pyridine-3-carboxylic acid amide] | 173% | 4100 nM |
| CCSc1nc(N2CCOCC2)cc(C)c1C(=O)NCc1ccc(S(C)(=O)=O)cc1 [Example 247, 2-Ethylsulfanyl-4-methyl-N-[(4-methylsulfonyl-phenyl)-methyl]-6-morpholin-4-yl-pyridine-3-carboxylic acid amide] | 38% | – |
| CCSc1nc(N2CCN(CC(F)(F)F)CC2)cc(C)c1C(=O)NCc1cccc(F)c1 [Example 251, 2-Ethylsulfanyl-N-[(3-fluorophenyl)-methyl]-4-methyl-6-[4-(2,2,2-trifluoro-ethyl)-piperazin-1-yl]-pyridine-3-carboxylic acid amide] | 97% | 1590 nM |

Now from value to compound:

| Emax | EC50 | SMILES |
| --- | --- | --- |
| 214% | 366 nM | Cc1cc(N2CCOCC2)nc(N(C)C)c1C(=O)NCc1cc(F)cc(F)c1 [Example 242, N-[(3,5-Difluoro-phenyl)-methyl]-2-dimethylamino-4-methyl-6-morpholin-4-yl-pyridine-3-carboxylic acid amide] |
| 225% | 345 nM | Cc1cc(N2CCOCC2)nc(N(C)C)c1C(=O)NCCCC(C)(C)C [Example 245, 2-Dimethylamino-N-(4,4-dimethyl-pentyl)-4-methyl-6-morpholin-4-yl-pyridine-3-carboxylic acid amide] |
| 223% | 313 nM | CCSc1nc(N2CCOC[C@H]2COC)cc(C)c1C(=O)NCc1ccc(F)cc1 [Example 248, 2-Ethylsulfanyl-N-[(4-fluorophenyl)-methyl]-6-[(3R)-3-(methoxymethyl)-morpholin-4-yl]-4-methyl-pyridine-3-carboxylic acid amide] |
| 129% | 82 nM | CCSc1nc(N2CCOC[C@@H]2COC)cc(C)c1C(=O)NCc1ccc(F)cc1 [Example 249, 2-Ethylsulfanyl-N-[(4-fluorophenyl)-methyl]-6-[(3S)-3-(methoxymethyl)-morpholin-4-yl]-4-methyl-pyridine-3-carboxylic acid amide] |
| 196% | 371 nM | Cc1cc(N2CCOCC2)nc(C(C)(C)C)c1C(=O)NCc1cccc(F)c1 [Example 250, 2-tert-Butyl-N-[(3-fluorophenyl)-methyl]-4-methyl-6-morpholin-4-yl-pyridine-3-carboxylic acid amide] |
